Assay results from patent US20240417387A1, “SULFONYLPIPERAZINYL COMPOUNDS FOR TREATMENT OF BACTERIAL INFECTIONS” (Hoffmann-La Roche Inc., priority 2021, published 2024).
≈ marks a conversion by molar mass, not a printed value. Where two headings read alike, the source gives them in different places.

Assays:
[1] = Human microsome stability assay; type: in vitro ADME; conditions: human liver microsomes 0.5 mg/mL, 37° C., pH 7.4, NADPH regenerating system
Procedure, shortened: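 Compound […] with 0.5 mg/mL human liver microsomal protein in 100 mM potassium phosphate pH 7.4, 10 min preincubation at 37 °C, started with NADPH regenerating system. Sampled 0–30 min, remaining compound by LC-MS/MS; clearance binned low <7, medium 7–16.2, high >16.2 mL/min/kg.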

[2] = tested on: Klebsiella pneumonia ATCC 43816; test: Minimal Inhibitory Concentration (MIC) broth dilution assay, K. pneumonia ATCC 43816; type: cell-based; conditions: Klebsiella pneumoniae, ATCC43816, 20 hours at 35° C., CAMHB, read-out: MIC K. p ATCC 43816
Procedure, shortened: (§1)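 Broth microdilution with twofold compound series in cation-adjusted Mueller Hinton broth, inoculum 5×10^5 CFU/mL, applied to each strain. Plates incubated 20 h at 35 °C in ambient air. MIC […] recorded as the lowest concentration with no visible growth, read by eye.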

[3] = tested on: Escherichia coli ATCC 25922; test: Minimal Inhibitory Concentration (MIC) broth dilution assay, E. coli ATCC 25922; type: cell-based; conditions: Escherichia coli, ATCC25922, 20 h, read-out: MIC E. coli ATCC 25922
Procedure, shortened: as §1

[4] = target: Escherichia coli UDP-2,3-diacylglucosamine hydrolase (LpxH) (Escherichia coli (strain K12), UniProt P43341); test: Enzymatic IC50 assay of Escherichia coli LpxH (UMP/CMP-Glo luminescence); type: biochemical
Procedure, shortened: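 LpxH (2 nM) preincubated 10 min at room temperature with compound (100 μM to 1.7 nM) in Tris-HCl pH7.5 buffer with 2.5 mM MnCl2, then reacted with 5 μM UDP-DAG for 20 min. Reaction heat-stopped at 95° C.; released UMP converted to ATP and read by luciferase luminescence (UMP/CMP-Glo).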

[5] = tested on: Escherichia coli BW 25113; test: Minimal Inhibitory Concentration (MIC) broth dilution assay, E. coli BW 25113; type: cell-based; conditions: Escherichia coli, BW25113, 20 hours at 35° C., CAMHB, read-out: MIC E. coli K-12 BW 25113
Procedure, shortened: as §1

[6] = Enzymatic IC50 against Escherichia coli LpxH, read-out: IC50 (converted)

Escherichia coli UDP-2,3-diacylglucosamine hydrolase (LpxH), sequence (P43341 whole entry): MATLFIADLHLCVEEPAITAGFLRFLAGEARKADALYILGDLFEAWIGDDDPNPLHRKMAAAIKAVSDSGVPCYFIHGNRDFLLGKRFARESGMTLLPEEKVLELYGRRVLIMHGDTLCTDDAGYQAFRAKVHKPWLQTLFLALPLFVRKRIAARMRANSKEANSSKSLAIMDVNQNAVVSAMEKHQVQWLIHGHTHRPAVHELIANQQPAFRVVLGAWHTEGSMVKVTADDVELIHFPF

Compound	Clearance of Human microsome [1] [mL/min/kg]	MIC [2] [µg/mL]	MIC [3] [µg/mL]	IC50 [4, 6] [nM]	MIC [5] [µg/mL]	IC50 [4] [nM]
NCC1(NC(=O)[C@H]2CC[C@H](C(F)(F)c3cc(Cl)nc(N4CCN(S(=O)(=O)c5ccc(N6C[C@H](N)CC6=O)cc5)CC4)c3)CC2)CC1 [Example 012, Trans-N-[1-(aminomethyl)cyclopropyl]-4-[[2-[4-[4-[(4R)-4-amino-2-oxo-pyrrolidin-1-yl]phenyl]sulfonylpiperazin-1-yl]-6-chloro-4-pyridyl]-difluoro-methyl]cyclohexanecarboxamide]	6.19	0.57 (≈ 0.838 µM)	0.57 (≈ 0.838 µM)	2.94	0.57 (≈ 0.838 µM)	–
CN(C)CCCNC(=O)c1ccc(C(F)(F)c2cc(Cl)nc(N3CCN(S(=O)(=O)c4ccc(N5C[C@H](N)CC5=O)cc4)CC3)c2)nc1 [Example 027, 6-[[2-chloro-6-[4-[4-[(4R)-4-amino-2-oxo-pyrrolidin-1-yl]phenyl]sulfonylpiperazin-1-yl]-4-pyridyl]-difluoro-methyl]-N-[3-(dimethylamino)propyl]pyridine-3-carboxamide]	6.15	3.2 (≈ 4.63 µM)	3.2 (≈ 4.63 µM)	5.79	1.6 (≈ 2.31 µM)	–
COC(CN)CNC(=O)[C@H]1CC[C@H](C(F)(F)c2cc(Cl)nc(N3CCN(S(=O)(=O)c4ccc(N5C[C@H](N)CC5=O)cc4)CC3)c2)CC1 (stereo partly drawn) [Example 076, Trans-N-(3-amino-2-methoxy-propyl)-4-[[2-chloro-6-[4-[4-[(4R)-4-amino-2-oxo-pyrrolidin-1-yl]phenyl]sulfonylpiperazin-1-yl]-4-pyridyl]-difluoro-methyl]cyclohexanecarboxamide]	9.06	1.1 (≈ 1.58 µM)	1.1 (≈ 1.58 µM)	< 2.86	1.1 (≈ 1.58 µM)	–
NCCCNC(=O)c1cnc(C(F)(F)c2cc(Cl)nc(N3CCN(S(=O)(=O)c4ccc(N5C[C@H](N)CC5=O)cc4)CC3)c2)cn1 [Example 021, N-(3-aminopropyl)-5-[[2-chloro-6-[4-[4-[(4R)-4-amino-2-oxo-pyrrolidin-1-yl]phenyl]sulfonylpiperazin-1-yl]-4-pyridyl]-difluoro-methyl]pyrazine-2-carboxamide]	10.85	1.8 (≈ 2.71 µM)	1.3 (≈ 1.96 µM)	3.01	2.2 (≈ 3.31 µM)	–
NCC(=O)NCCNC(=O)[C@H]1CC[C@H](C(F)(F)c2cc(Cl)nc(N3CCN(S(=O)(=O)c4ccc(N5C[C@H](N)CC5=O)cc4)CC3)c2)CC1 [Example 075, Trans-N-[2-[(2-aminoacetyl)amino]ethyl]-4-[[2-chloro-6-[4-[4-[(4R)-4-amino-2-oxo-pyrrolidin-1-yl]phenyl]sulfonylpiperazin-1-yl]-4-pyridyl]-difluoro-methyl]cyclohexanecarboxamide]	10.47	1.2 (≈ 1.69 µM)	2.3 (≈ 3.23 µM)	8.44	2.3 (≈ 3.23 µM)	–
N[C@@H]1CC(=O)N(c2ccc(S(=O)(=O)N3CCN(c4cc(C(F)(F)[C@H]5CC[C@H](C(=O)N6C[C@H](N)C[C@H](N)C6)CC5)cc(Cl)n4)CC3)cc2)C1 [Example 048, Trans-(4R)-4-amino-1-[4-[4-[6-chloro-4-[[4-cis-(3,5-diaminopiperidine-1-carbonyl)cyclohexyl]-difluoro-methyl]-2-pyridyl]piperazin-1-yl]sulfonylphenyl]pyrrolidin-2-one]	12.06	1.2 (≈ 1.69 µM)	1.2 (≈ 1.69 µM)	18.3	1.2 (≈ 1.69 µM)	–
NC1CC(=O)N(c2ccc(S(=O)(=O)N3CCN(c4cc(C(F)(F)[C@H]5CC[C@H](C(=O)NCCCO)CC5)cc(Cl)n4)CC3)cc2)C1 (stereo partly drawn) [Example 003, Trans-4-[[2-[4-[4-(4-amino-2-oxo-pyrrolidin-1-yl)phenyl]sulfonylpiperazin-1-yl]-6-chloro-4-pyridyl]-difluoro-methyl]-N-(3-hydroxypropyl)cyclohexanecarboxamide]	7.41	2.1 (≈ 3.14 µM)	4.2 (≈ 6.28 µM)	–	1 (≈ 1.49 µM)	< 2.99
NCCCNC(=O)[C@H]1CC[C@H](C(F)(F)c2cc(Cl)nc(N3CCN(S(=O)(=O)c4ccc(N5C[C@H](N)CC5=O)cc4)CC3)c2)CC1 [Example 056, Trans-N-(3-aminopropyl)-4-[[2-chloro-6-[4-[4-[(4R)-4-amino-2-oxo-pyrrolidin-1-yl]phenyl]sulfonylpiperazin-1-yl]-4-pyridyl]-difluoro-methyl]cyclohexanecarboxamide]	11.37	1.1 (≈ 1.65 µM)	1.2 (≈ 1.8 µM)	5.99	1.1 (≈ 1.65 µM)	–
NCCCNC(=O)[C@H]1CC[C@H](C(F)(F)c2cc(Cl)nc(N3CCN(S(=O)(=O)c4ccc(N5C[C@@H](CO)OC5=O)cc4)CC3)c2)CC1 [Example 058, Trans-N-(3-aminopropyl)-4-[[2-chloro-6-[4-[4-[(5S)-5-(hydroxymethyl)-2-oxo-oxazolidin-3-yl]phenyl]sulfonylpiperazin-1-y1]-4-pyridyl]-difluoro-methyl]cyclohexanecarboxamide]	8.04	1.1 (≈ 1.61 µM)	1.1 (≈ 1.61 µM)	< 2.92	0.29 (≈ 0.423 µM)	–
N[C@@H]1CC(=O)N(c2ccc(S(=O)(=O)N3CCN(c4cc(C(F)(F)[C@H]5CC[C@H](C(=O)N[C@H]6CNC[C@H]6N)CC5)cc(Cl)n4)CC3)cc2)C1 (stereo in doubt) [Example 011, Trans-4-[[2-chloro-6-[4-[4-[(4R)-4-amino-2-oxo-pyrrolidin-1-yl]phenyl]sulfonylpiperazin-1-yl]-4-pyridyl]-difluoro-methyl]-N-[cis-4-aminopyrrolidin-3-yl]cyclohexanecarboxamide]	11.93	1.1 (≈ 1.58 µM)	1.1 (≈ 1.58 µM)	17.3	1.1 (≈ 1.58 µM)	–
CC1(N)CCN(C(=O)[C@H]2CC[C@H](C(F)(F)c3cc(Cl)nc(N4CCN(S(=O)(=O)c5ccc(N6C[C@H](N)CC6=O)cc5)CC4)c3)CC2)CC1 [Example 004, Trans-(4R)-4-amino-1-[4-[4-[4-[[4-(4-amino-4-methyl-piperidine-1-carbonyl)cyclohexyl]-difluoro-methyl]-6-chloro-2-pyridyl]piperazin-1-yl]sulfonylphenyl]pyrrolidin-2-one]	6.15	1.1 (≈ 1.55 µM)	1.1 (≈ 1.55 µM)	8.47	0.83 (≈ 1.17 µM)	–
NCCCNC(=O)C12CCC(C(F)(F)c3cc(Cl)nc(N4CCN(S(=O)(=O)c5ccc(N6C[C@H](N)CC6=O)cc5)CC4)c3)(CC1)CC2 [Example 033, N-(3-aminopropyl)-4-[[2-chloro-6-[4-[4-[(4R)-4-amino-2-oxo-pyrrolidin-1-yl]phenyl]sulfonylpiperazin-1-yl]-4-pyridyl]-difluoro-methyl]bicyclo[2.2.2]octane-1-carboxamide]	10.77	0.43 (≈ 0.619 µM)	0.57 (≈ 0.821 µM)	5.76	1.1 (≈ 1.58 µM)	–
N[C@@H]1CC(=O)N(c2ccc(S(=O)(=O)N3CCN(c4cc(C(F)(F)[C@H]5CC[C@H](C(=O)NNC(=O)C6CCNCC6)CC5)cc(Cl)n4)CC3)cc2)C1 [Example 051, Trans-N′-[4-[[2-chloro-6-[4-[4-[(4R)-4-amino-2-oxo-pyrrolidin-1-yl]phenyl]sulfonylpiperazin-1-yl]-4-pyridyl]-difluoro-methyl]cyclohexanecarbonyl]piperidine-4-carbohydrazide]	8.70	4.6 (≈ 6.24 µM)	4.6 (≈ 6.24 µM)	12.2	2.3 (≈ 3.12 µM)	–
NCCCNC(=O)C12CCC(C(F)(F)c3cc(Cl)nc(N4CCN(S(=O)(=O)c5ccc(N6C[C@H](N)CC6=O)cc5)CC4)c3)(CC1)C2 [Example 034, N-(3-aminopropyl)-4-[[2-chloro-6-[4-[4-[(4R)-4-amino-2-oxo-pyrrolidin-1-yl]phenyl]sulfonylpiperazin-1-yl]-4-pyridyl]-difluoro-methyl]norbornane-1-carboxamide]	6.15	1.1 (≈ 1.62 µM)	1.1 (≈ 1.62 µM)	29.4	1.7 (≈ 2.5 µM)	–
NCCOCCNC(=O)[C@H]1CC[C@H](C(F)(F)c2cc(Cl)nc(N3CCN(S(=O)(=O)c4ccc(N5C[C@H](N)CC5=O)cc4)CC3)c2)CC1 [Example 042, Trans-N-[2-(2-aminoethoxy)ethyl]-4-[[2-chloro-6-[4-[4-[(4R)-4-amino-2-oxo-pyrrolidin-1-yl]phenyl]sulfonylpiperazin-1-yl]-4-pyridyl]-difluoro-methyl]cyclohexanecarboxamide]	11.12	2.3 (≈ 3.29 µM)	2.3 (≈ 3.29 µM)	11.5	2.3 (≈ 3.29 µM)	–
